IC50 and EC50 data for four compounds are collected here from ChEMBL document CHEMBL1201862, “PubChem BioAssay data set” (2004).

As a reminder, the IC50 is the concentration needed to halve the response being measured. As a reminder, the EC50 is the concentration needed to bring the measured effect to its halfway point.

Active and inactive are the calls of the source.

The target in one experiment is T1, Caspase-3 (Homo sapiens, UniProt P42574).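 Note: Dose-response selectivity test against caspase-3 for candidate inhibitors of sentrin-specific proteases (SENPs).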
T1 sequence (P42574 whole entry): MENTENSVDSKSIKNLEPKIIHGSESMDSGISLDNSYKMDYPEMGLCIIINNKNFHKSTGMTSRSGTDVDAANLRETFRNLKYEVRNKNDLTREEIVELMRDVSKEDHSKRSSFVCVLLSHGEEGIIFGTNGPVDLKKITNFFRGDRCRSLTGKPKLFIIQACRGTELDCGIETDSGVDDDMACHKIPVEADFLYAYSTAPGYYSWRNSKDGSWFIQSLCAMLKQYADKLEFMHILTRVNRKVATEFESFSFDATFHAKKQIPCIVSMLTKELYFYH
It counts as functional.

Experiment [1] deals with T2, Sentrin-specific protease 7 (Homo sapiens, UniProt Q9BQF6).
T2 sequence (Q9BQF6 whole entry): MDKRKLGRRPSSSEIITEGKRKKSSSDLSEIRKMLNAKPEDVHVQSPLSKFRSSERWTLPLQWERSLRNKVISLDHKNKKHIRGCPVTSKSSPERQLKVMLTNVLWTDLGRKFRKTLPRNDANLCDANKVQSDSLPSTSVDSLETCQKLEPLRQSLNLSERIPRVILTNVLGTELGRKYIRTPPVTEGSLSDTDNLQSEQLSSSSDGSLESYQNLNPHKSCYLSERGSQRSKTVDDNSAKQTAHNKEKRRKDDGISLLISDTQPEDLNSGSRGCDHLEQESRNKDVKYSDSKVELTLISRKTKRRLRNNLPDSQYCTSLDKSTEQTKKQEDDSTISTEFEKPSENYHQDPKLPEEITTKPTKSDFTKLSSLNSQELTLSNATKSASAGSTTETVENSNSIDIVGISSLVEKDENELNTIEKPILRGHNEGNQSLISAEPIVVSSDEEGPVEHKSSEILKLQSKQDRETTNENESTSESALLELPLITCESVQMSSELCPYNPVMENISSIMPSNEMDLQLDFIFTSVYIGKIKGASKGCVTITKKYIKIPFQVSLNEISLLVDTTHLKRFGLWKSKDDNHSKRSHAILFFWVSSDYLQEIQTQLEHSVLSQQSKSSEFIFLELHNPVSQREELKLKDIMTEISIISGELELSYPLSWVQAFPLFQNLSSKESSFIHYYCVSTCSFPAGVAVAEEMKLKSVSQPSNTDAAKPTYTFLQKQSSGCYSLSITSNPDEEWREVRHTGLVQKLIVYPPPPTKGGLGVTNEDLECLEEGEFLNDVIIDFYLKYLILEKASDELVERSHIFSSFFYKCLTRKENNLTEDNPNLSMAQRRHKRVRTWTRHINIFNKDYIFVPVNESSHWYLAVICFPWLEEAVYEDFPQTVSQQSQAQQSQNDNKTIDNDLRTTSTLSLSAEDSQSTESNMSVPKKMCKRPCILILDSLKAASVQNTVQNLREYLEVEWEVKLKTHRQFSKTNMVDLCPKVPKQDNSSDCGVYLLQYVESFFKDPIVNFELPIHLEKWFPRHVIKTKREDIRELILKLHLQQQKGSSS
In kind it is functional.

Experiment [2] deals with T3, Apoptotic protease-activating factor 1 (Homo sapiens, UniProt O14727).
T3 sequence (O14727 whole entry): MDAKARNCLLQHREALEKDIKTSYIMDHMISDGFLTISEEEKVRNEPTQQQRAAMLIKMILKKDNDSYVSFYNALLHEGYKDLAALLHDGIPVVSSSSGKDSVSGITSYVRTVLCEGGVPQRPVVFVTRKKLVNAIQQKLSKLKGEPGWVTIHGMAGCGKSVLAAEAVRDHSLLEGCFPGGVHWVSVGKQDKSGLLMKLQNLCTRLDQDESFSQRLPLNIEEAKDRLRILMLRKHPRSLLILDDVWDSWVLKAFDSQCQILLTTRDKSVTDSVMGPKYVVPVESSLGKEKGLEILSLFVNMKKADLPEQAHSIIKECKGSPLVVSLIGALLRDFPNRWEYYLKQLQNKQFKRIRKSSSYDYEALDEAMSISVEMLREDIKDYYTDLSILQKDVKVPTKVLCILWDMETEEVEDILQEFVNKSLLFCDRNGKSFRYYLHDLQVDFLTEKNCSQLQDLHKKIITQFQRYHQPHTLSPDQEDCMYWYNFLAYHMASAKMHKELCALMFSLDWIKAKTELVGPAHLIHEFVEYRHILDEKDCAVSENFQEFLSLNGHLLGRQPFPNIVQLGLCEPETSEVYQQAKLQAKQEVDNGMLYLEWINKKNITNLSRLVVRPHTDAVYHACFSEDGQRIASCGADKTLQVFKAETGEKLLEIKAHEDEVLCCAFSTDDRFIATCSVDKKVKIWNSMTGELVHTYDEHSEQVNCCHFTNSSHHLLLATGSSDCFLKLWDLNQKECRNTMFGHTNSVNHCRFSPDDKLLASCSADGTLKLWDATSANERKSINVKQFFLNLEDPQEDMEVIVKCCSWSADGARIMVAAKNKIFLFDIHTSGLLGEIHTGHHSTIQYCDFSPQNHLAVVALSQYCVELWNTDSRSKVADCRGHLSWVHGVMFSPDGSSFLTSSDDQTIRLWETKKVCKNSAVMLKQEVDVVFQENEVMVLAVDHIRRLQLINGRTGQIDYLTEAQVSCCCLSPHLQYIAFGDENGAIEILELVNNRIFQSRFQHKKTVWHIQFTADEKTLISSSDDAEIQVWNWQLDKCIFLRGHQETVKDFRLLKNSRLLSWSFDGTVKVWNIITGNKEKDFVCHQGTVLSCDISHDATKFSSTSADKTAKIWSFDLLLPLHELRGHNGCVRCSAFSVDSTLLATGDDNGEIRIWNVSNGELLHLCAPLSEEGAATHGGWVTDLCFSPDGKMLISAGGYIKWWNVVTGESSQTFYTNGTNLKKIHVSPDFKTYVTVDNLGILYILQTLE
It counts as functional.

The test system of experiment [3] is BJ. Briefly: BJ-TERT fibroblast viability loss – cell-based, RAS-independent, luminescence, dose response (AID 1933). It counts as functional. As to conditions: Homo sapiens.
For experiment [4], the system named is BJ. The experiment is described as follows: cells. As to conditions: Homo sapiens. In kind it is functional, cell-based.
Experiment [5] in a line: DRD fibroblast viability loss – cell-based, non-viral oncogenic, luminescence, dose response (AID 1934). As to conditions: Homo sapiens. It counts as functional.

With `CCc1cc[n+](C2=C([N-]S(=O)(=O)c3cccs3)C(=O)c3ccccc3C2=O)cc1`, the IC50 is 12.5 µM (active) on Caspase-3, 8.3 µM (active) in experiment [1] and 11.2 µM (active) in experiment [2].

For `O=C(NC1=C(NC2CCS(=O)(=O)C2)C(=O)c2ccccc2C1=O)c1ccccc1` (stereo not drawn), the EC50 is 11 µM (inconclusive) in the experiment with BJ [3], 3.28 µM (active) in the experiment on BJ [4] and 14.6 µM (active) in experiment [5]. In addition, the IC50 in experiment [2] is 2.1 µM (active).

Consider `CCCC(=O)NC(c1ccc(N(C)C)cc1)c1ccc2cccnc2c1O` (stereo not drawn), for which the EC50 with BJ [3] is 2.5 µM (active); in the experiment with BJ [4], 3.42 µM (active); in experiment [5], 2.54 µM (active).

Take `COc1ccccc1N(/N=C1\Sc2ccccc2C1=O)C(C)=O`: the IC50 is 27.8 µM (active) at Caspase-3, 6.78 µM (active) in experiment [1] and 13.3 µM (active) in experiment [2].
